Data from patent publication US20060110376A1, “MDA-7 and free radicals in the treatment of cancer” (priority 2002, published 2006).

Columns and labels:
RT2 cells = assay: MTT growth and trypan blue viability with NAC or Ad.Bcl-XL; type: cell-based, rat; settings: 10 mM NAC 30 min before 6 Gy; Ad.mda-7 25 m.o.i.
Procedure: FIG. 15A-D. Ad.mda-7 reduces the expression of Bcl-XL and increases the levels of BAX, consistent with a causal role of Bcl-XL expression in the radiosensitizing effect. Cells were cultured for 24 h after plating then infected with Ad.mda-7 or CMV control viruses (25 m.o.i.). The cells were irradiated (6 Gy) 24 hours after infection. Cells were isolated 96 h after irradiation and processed. Panel A. Ad.mda-7 and radiation suppress the expression of Bcl-XL and enhance BAX levels in RT2 cells 96 h after irradiation. Cells were processed for SDS PAGE and immunoblotting. A representative study (n=3). Panel B. RT2 cells were cultured for 24 h then infected with Ad.mda-7 or CMV control viruses at 25 m.o.i. The cells were irradiated (6 Gy) 24 hours after infection. Cells were isolated 96 h after irradiation and the integrity of nuclear DNA under each condition determined. Data are from two representative experiments. Panel C. […] Cells were processed 96 h after irradiation and cell viability determined via trypan blue exclusion assay. […]
MIT Assay for Determination of Cellular Viability. […] The cytotoxicity of the various treatments was assessed four days after irradiation by measurement of cell viability by use of the MTT assay, as described previously (Mosmann, 1983, J. Immunol. Methods 65:55-63). The plates were read on a Dynatech MR600 Microplate Reader at 540 nm. […]

[1] = system: normal cells (immortalized human astrocytes or melanocytes); assay: MTT viability assay; type: cell-based; settings: Ad.mda-7 100 p.f.u./cell
Procedure: MTT Viability Assays. Cell viability was assessed by MTT assays as described (Lebedeva et al., 2000, Cancer Research 60:6052-6060). Briefly, cells were seeded in 96-well tissue culture plates (1.5×10^3 cells per well) and treated with various agents. At the indicated times, medium was removed, and fresh medium containing 0.5 mg/ml MTT was added to each well. The cells were incubated at 37° C. for 4 h and then an equal volume of solubilization solution (0.01N HCl in 10% SDS) was added to each well and mixed thoroughly. The optical density from the plates was read on a BioRad Microplate Reader Model 550 at 595 nm.

[2] = system: renal carcinoma cells (UOK121N, A498); assay: Clonogenic survival assay; type: cell-based, human; settings: arsenic trioxide (0.5 μM) alone
Procedure: Panel A. UOK121N cells. Panel B. A498 cells. Cells were plated in 6 well plates (˜5×10^4 cells/well) and 24 h later treated with GST, GST-MDA-7 (both 0.5 nM) and As2O3 (0.5 μM) as indicated. Cells were isolated 96 h after GST-MDA-7 treatment and cell viability determined using trypan blue exclusion assay (see FIG. 28). Based on trypan blue negative viable cell values, 250, 500 and 2000 viable cells were re-plated in Linbro plates. The plating density for colony formation assays depended upon the prior treatment of the cells and data obtained in FIGS. 27 and 28. 10-14 days after plating, cells were fixed and stained with crystal violet. Colony formation was determined using visual counting, and a colony was defined as a group of >50 cells. Data are the means of 3 separate experiments (±SEM). * p<0.05 less than control cells; # p<0.05 less than As2O3 or GST-MDA-7 treated cells.
Cell Survival Analyses. Cells were assayed for the effect(s) of GST-MDA-7 and arsenic trioxide on cell survival. Cells were plated (10,000 cells per 60 mm dish) and 24 h after plating treated with GST-MDA-7 or GST. Thirty minutes later, cells were treated with arsenic trioxide. Ninety-six hours later, cells were isolated by trypsinization and viable trypan blue negative cells re-plated in 60 mm dishes at 250-1,000 cells per plate. […] Colonies that contain more than 50 cells were then counted. […]

Compound	effect of NAC on Ad.mda-7 + radiation cell killing and proliferation (RT2 cells)	growth, combinational treatment with Ad.mda-7 [1]	clonogenicity [2]
CC(=O)N[C@@H](CS)C(=O)O [NAC, N-acetyl-cysteine]	abolished the enhancement in cell killing and reduction in proliferation		
arsenic trioxide		does not affect growth of normal cells	significantly reduced clonogenicity
